Source: PMC9011347, “Small-Molecule Inhibitors Targeting Lipolysis in Human Adipocytes” (Journal of the American Chemical Society, 2022)

Target: T1, human ATGL (Homo sapiens, UniProt Q96AD5)
T1 construct: host or cells: Expi293 cells, crude lysate
T1 sequence (Q96AD5 1-504): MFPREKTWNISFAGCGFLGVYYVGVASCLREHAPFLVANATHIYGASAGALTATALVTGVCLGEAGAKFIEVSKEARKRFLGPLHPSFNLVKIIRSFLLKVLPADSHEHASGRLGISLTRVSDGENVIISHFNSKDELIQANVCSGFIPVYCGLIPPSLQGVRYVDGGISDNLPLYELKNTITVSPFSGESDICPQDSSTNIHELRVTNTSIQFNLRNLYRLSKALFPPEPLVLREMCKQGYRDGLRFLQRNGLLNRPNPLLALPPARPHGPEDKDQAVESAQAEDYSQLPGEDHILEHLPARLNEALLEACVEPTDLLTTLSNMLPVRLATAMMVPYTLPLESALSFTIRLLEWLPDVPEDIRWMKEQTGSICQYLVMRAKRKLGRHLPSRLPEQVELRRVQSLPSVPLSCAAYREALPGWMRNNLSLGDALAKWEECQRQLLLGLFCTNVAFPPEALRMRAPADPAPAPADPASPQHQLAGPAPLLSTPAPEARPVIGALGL
Assay: TAG hydrolase assay, lysates of Expi293 cells overexpressing ATGL, purified CGI-58, radiolabeled triolein
Format: biochemical
Conditions: for Ki: NG-497 0.5 μM
Text: We previously developed Atglistatin (Ai), a selective inhibitor of mouse ATGL,[31],[32] which is ineffective against human ATGL.[17] Ai acts as a competitive inhibitor targeting the minimal active domain of ATGL ranging from aa 1–254.[33] This domain is highly conserved in different mammalian species (∼90% identity, Table 1) and comprises the patatin-like domain, eponymous for all members of the patatin-like phospholipase domain-containing (PNPLA) protein family.[34] We first investigated the species selectivity of Ai by performing TAG hydrolase assays[35] with lysates from Expi293 cells expressing ATGL orthologues of different species. The activity of ATGL is strongly stimulated by the co-activator protein comparative gene identification-58 (CGI-58, also known as α/β hydrolase domain containing 5, ABHD5)[36] and can be suppressed by the inhibitory protein G0/G1 switch 2 (G0S2).[37] We therefore determined ATGL activity in the presence and absence of mouse CGI-58, mouse G0S2, and Ai. As shown in Figure 1a–i, all ATGL orthologues were expressed, enzymatically active, stimulated by mouse CGI-58, and inactivated by mouse G0S2. Ai inhibited mouse (Figure 1a), rat (Figure 1b), goat (Figure 1c), dog (Figure 1e), and marmoset ATGL (Figure 1f), but not pig (Figure 1d), rhesus monkey (Figure 1g), or human ATGL (Figure 1h).
To develop an inhibitor for human ATGL, we screened compounds synthesized in the course of the development of Ai.[31] Screenings were performed in the presence of purified CGI-58 using cell lysates of Expi293 cells overexpressing ATGL as a source of enzymatic activity and radiolabeled triolein as substrate as described above (Figure 1). […] In an iterative optimization process, which encompassed the synthesis and testing of >150 compounds (not shown), we varied the nature of the top aryl ring (Figure 2a). Replacement of the top phenyl group with a pyridine moiety (compound 2) led to a significant improvement in inhibitor efficacy (IC50 = 3 μM), which we interpret as a result from a smaller angle between the 1,3-arrangement of the aryl- and the ester-substituents due to the shorter C–N bond length within the pyridine group. […] The introduction of a methoxy residue at this position finally led to compound NG-497 showing an IC50 value of 1 μM.
Experimental details, materials, and methods
Expression of recombinant ATGL constructs and preparation of cell lysates. Expi293 cells were cultivated in Expi293 Expression Medium (GIBCO, Thermo Fisher Scientific, Waltham, USA) at standard conditions (37°C, 5% CO2, 95% humidified atmosphere, 125 rpm). DNA constructs containing ATGL from different species and chimeric ATGL variants in pcDNA3.1(+)myc-His C Vector were obtained from BioCat GmbH (Heidelberg, Germany). Cells were transfected with ExpiFectamine293 Transfection Kit (GIBCO) in Opti-Mem reduced serum medium (GIBCO) according to the manufacturer’s instructions. After 48 h, cells were harvested by centrifugation and washed three times with PBS. Cells were disrupted in buffer A (0.25 M sucrose, 1 mM EDTA, 1 mM dithiothreitol, 20µg/ml leupeptin, 2 µg/ml antipain, 1 µg/ml pepstatin, pH 7.0) by sonication (Virsonic 475, Virtis, Gardiner, USA). Nuclei and debris were removed by centrifugation at 1,000 g and 4°C for 10 min. Protein concentrations were determined using Bio-Rad protein assay (Bio-Rad 785, Bio-Rad Laboratories, Munich, Germany) using BSA as standard.
Expression and purification of mouse CGI-58. CGI-58 was expressed and purified as described 1. In brief, the coding sequence of mouse Cgi-58 was cloned into pHis-Sumo and co-transformed with the plasmid pTf16 expressing the chaperone Tig into E. coli BL21(DE3). Cells were cultured overnight at 37°C and 180 rpm in the presence of 40 µg/ml kanamycin and 34 µg/ml chloramphenicol. Thereafter, cells were transferred into fresh LB medium, grown until OD600 of 0.6, and expression was induced […]
by the addition of 0.5 mM IPTG. […]

`CCOc1ccc(-c2cc(OC)cc(C(=O)OC(C)C)n2)cc1` [NG-497] was tested, and the “inhibition of ATGL orthologue” value (NG-497 50 μM, human ATGL) was “inactivates”, the “inactivation of TAG hydrolase activity of ATGL (PNPLA2)” value (NG-497 100 μM) was “inactivated” and the “mechanism of inhibition (Lineweaver–Burk analysis)” value (increase of apparent Km, Vmax not affected) was “reversible and competitive inhibition”. The IC50 (inhibition of TAG hydrolase activity of human ATGL, Expi293 lysates, purified CGI-58, radiolabeled triolein) was 1000 nM, the Ki (nonlinear regression (GraphPad Prism), Figure 2c) was 490 ± 20 nM and the Ki (nonlinear regression, varying substrate concentration) was 500 nM.
